From publication PMC4750701, “Role of Mitochondrial RNA Polymerase in the Toxicity of Nucleotide Inhibitors of Hepatitis C Virus” (Antimicrobial Agents and Chemotherapy, 2016) come the findings set out here.

Like-named read-outs stand apart in the source and are kept apart here.

In series [1] the test system is human erythroid progenitors (bone marrow cells). As to the kind of experiment: Bone marrow erythroid progenitor colony assay, 14 days. In kind it is cell-based. The following applies: read-out: Mean CC50 ± SD in Bone marrow cells Erythroid.
The test system of series [2] is human myeloid progenitors (bone marrow cells). The series is described as follows: Bone marrow myeloid progenitor colony assay, 14 days. It counts as cell-based. The following applies: read-out: Mean CC50 ± SD in Bone marrow cells Myeloid.
In series [3] the test system is mitochondrial DNA-encoded cytochrome c oxidase (COX-1). The series is described as follows: Mitochondrial protein synthesis assay (COX-1, MitoBiogenesis in-cell ELISA) in PC-3 cells. In kind it is cell-based, human. The method, then:
(§1) PC-3 cells were treated with the compounds for 5 days and analyzed with the MitoTox MitoBiogenesis in-cell enzyme-linked immunosorbent assay (ELISA) kit (MitoSciences/Abcam, Eugene, Oregon) as described previously ([13]). The assay uses quantitative immunocytochemistry to measure the protein levels of nuclear DNA-encoded succinate dehydrogenase (SDH-A; complex II [succinate dehydrogenase]) and mitochondrial DNA-encoded cytochrome c oxidase (COX-1; complex IV [cytochrome c oxidase]) in cultured cells.
A general note: In an ELISA, binding on a coated surface is turned into a signal by an enzyme label.

Series [4] relates to nuclear DNA-encoded succinate dehydrogenase (SDH-A). As to the kind of experiment: Nuclear protein synthesis (SDH-A, MitoBiogenesis in-cell ELISA) in PC-3 cells. It counts as cell-based, human. The following applies: 5 days, read-out: Mean CC50 ± SD causing General cellular toxicity: Protein synthesis. The method, then: as §1
Series [5] concerns mitochondrial DNA in PC-3 cells and HepG2 cells. As to the kind of experiment: Mitochondrial DNA depletion, PC-3 versus HepG2 cells. The following applies: 10-day treatment. In kind it is cell-based, human. The source says: Supplementary Fig. S1: PC-3 cells are more sensitive to ddC-induced mitochondria toxicity than HepG2 cells. (A) Levels of mitochondrial DNA in PC-3 cells (shown in […] and dashed line) and HepG2 cells (shown in • and solid line) after 10-day treatment; Levels of mitochondrial protein synthesis in PC-3 cells (B) and HepG2 cells (C) represented by COX-1 protein and nuclear protein synthesis represented by SDH-A protein after 5-day treatment. The levels of COX-1 (•), SDH-A ([…]), and ATP (<) are curve fitted to solid, dash, and dotted lines, […]

A further series deals with Quiescent PBMCs. The series is described as follows: Cytotoxicity in quiescent PBMCs, 5 days. The following applies: read-out: Mean CC50 ± SD in PBMCs Quiescent; 5 days.
A further series concerns Stimulated PBMCs. As to the kind of experiment: Cytotoxicity in stimulated PBMCs, 5 days. The following applies: read-out: Mean CC50 ± SD in PBMCs Stimulated; 5 days.
The test system of a further series is T-cells (MT-4). The series is described as follows: Cytotoxicity in MT-4 T-cells, 5-day treatment. The following applies: read-out: Mean CC50 ± SD in T-cells (MT-4); 5-day treatment.
In a further series the test system is Fibroblasts (MRC5). As to the kind of experiment: Cytotoxicity in MRC5 fibroblasts, 5-day treatment. The following applies: read-out: Mean CC50 ± SD in Fibroblasts (MRC5); 5-day treatment.
Series [6] concerns Primary human hepatocytes. As to the kind of experiment: Cytotoxicity in primary human hepatocytes, 5 days. The following applies: read-out: Mean CC50 ± SD in Hepatic cells (primary); human primary hepatocytes, 5 days.
Procedure: (§2) Primary human hepatocytes were from Bioreclamation IVT (Westbury, NY) or Life Technologies (Carlsbad, CA).
(§3) All cells were cultured at 37°C in a 5% CO2 incubator with 90% humidity unless noted otherwise. […] All cells were treated with the various compounds for 5 days, except for human erythroid and myeloid progenitors, which were treated for 14 days. After the incubation period, cell viability was measured by the addition of CellTiter Glo viability reagents (Promega, Madison, WI). The luminescence signal was quantified on an Envision luminescence plate reader (PerkinElmer, Waltham, MA) after incubation of the reagents and cells for 10 min at room temperature. […] CC50 values were calculated as the average of the results of three or four independent experiments.
The next series has as its system Prostate cells (PC-3). The series is described as follows: Cytotoxicity / ATP level in PC-3 cells, 5-day treatment.
Another series relates to HepG2 (galactose). As to the kind of experiment: Cytotoxicity in HepG2 (galactose) cells, 5-day treatment. The following applies: read-out: Mean CC50 ± SD in Hepatic cells HepG2 (galactose); 5-day treatment.
The next series relates to Huh7. The series is described as follows: Cytotoxicity in Huh7 cells, 5-day treatment (CellTiter Glo). The following applies: read-out: Mean CC50 ± SD in Hepatic cells Huh7; 5-day treatment. For orientation: ATP-based viability assays read luminescence as a measure of living cells.
Series [7] relates to mitochondrial spare respiratory capacity in PC-3 cells. The series is described as follows: Oxygen consumption rate / spare respiratory capacity in PC-3 cells. The following applies: PC-3 cells.

Procedure for Fibroblasts (MRC5): as §3
Cell Culture and Cytotoxicity Studies
(§4) The Huh-7 cells were maintained in growth medium containing Dulbecco's Modified Eagle
(§5) Medium (DMEM, Cellgro) supplemented with 1% Nonessential Amino Acids (NEAA, Cellgro,
(§6) Manassas, VA), 10% fetal bovine serum (FBS, HyClone, Logan, UT) and 1% Penicillin-
(§7) streptomycin-glutamate (PSG, Invitrogen, Carlsbad, CA). The cells were passaged twice weekly
(§8) and maintained at 90% confluence densities.
(§9) The HepG2 cells were maintained in Eagle’s Minimum Essential Medium (EMEM) from ATCC
(§10) (Manassas, VA) supplemented with 10% FBS, 100 units/mL penicillin and 100 µg/mL
(§11) streptomycin (P/S) (Gibco). The cells were passaged twice weekly and maintained at 90%
(§12) The PC-3 cells were maintained in Kaighn’s F12 medium (Gibco, Carlsbad, CA) supplemented
(§13) with 10% FBS (HyClone, Logan, UT), 100 units/mL penicillin and 100 µg/mL streptomycin
(§14) (P/S) (Gibco). The cells were passaged twice weekly and maintained at 90% confluence. Cells
(§15) between passages 4 and 15 were used in the assays.
(§16) The fibroblast cell line MRC-5 cell line derived from normal lung tissue, was purchased from
(§17) ATCC (Manassas, VA) and cultured in Minimum Essential Medium (MEM) (Cellgro, Manassas,
(§18) VA) supplemented with 10% FBS (HyClone, Logan, UT) and 1% PSG (Invitrogen). The cells
(§19) were passaged twice weekly and maintained at 90% confluence densities.
Procedure for HepG2 (galactose): as §3
Cell Culture and Cytotoxicity Studies
as §4, §5, §6, §7, §8, §9, §10, §11, §12, §13, §14, §15, §16, §17, §18, §19
Procedure for Prostate cells (PC-3): as §3
Cell Culture and Cytotoxicity Studies
as §4, §5, §6, §7, §8, §9, §10, §11, §12, §13, §14, §15, §16, §17, §18, §19
Procedure for Stimulated PBMCs: Human peripheral blood mononuclear cells (PBMCs) were isolated from human buffy coats obtained from healthy volunteers (Stanford Blood Bank, Palo Alto, CA) using standard Ficoll separation and stimulated as described elsewhere ([13]) and were tested at both quiescent and stimulated stages. Quiescent PBMCs were stimulated with 10 units per ml of recombinant human interleukin 2 (hIL-2) and 1 μg per ml phytohemagglutinin P (PHA-P) for 48 h prior to drug treatment.
as §3
Human peripheral blood mononuclear cells (PBMCs) were isolated from human buffy coats
obtained from normal healthy volunteers (Stanford Medical School Blood Center, Palo Alto,
CA). Total PBMCs were isolated from buffy coats using standard Ficoll separation and sterile
cellular isolation techniques performed in a bio-safety cabinet (1). Except where noted, the
procedure was carried out at room temperature. The final PBMCs pellet was resuspended in
Logan, UT), penicillin 100 units/mL and streptomycin 100 µg/mL (Gibco). For quiescent
PBMCs cultures, total cells were seeded in 96-well plates at a density of 1 x 10^6 cells per well, followed by immediate drug treatment. Stimulated PBMCs cultures were set up by seeding the freshly isolated PBMCs in T-175cm2 tissue culture flasks in 100 mL of RPMI containing the same components as the ones used for the quiescent PBMCs but with the addition of 10 units per mL of recombinant human interleukin-2 (hIL-2, Roche, Indianapolis, IN), and 1 µg per mL phytohemagglutinin-P (PHA-P, Sigma-Aldrich, St. Louis, MO) at density of 2  10^6 cells per mL for 48 hours at 37C in a 5% CO2 incubator with 90% humidity, prior to drug treatment.
Procedure for T-cells (MT-4): as §2, §3

As to `Nc1ccn([C@H]2CC[C@@H](CO)O2)c(=O)n1` [ddC, dideoxycytosine], the CC50 in series [1] is 1.9 ± 0.3 µM; in [2] it was 9.7 ± 2 µM; in [3] (PC-3 cells, COX-1, 5 days, read-out: Mean CC50 ± SD causing Mitochondrial toxicity: Protein synthesis), 0.19 ± 0.07 µM; in series [4], greater than 1 µM; in the series with Quiescent PBMCs, greater than 100 µM; in the series with Stimulated PBMCs, greater than 100 µM. Besides, the CC50 is greater than 89 µM with T-cells (MT-4); greater than 89 µM with Fibroblasts (MRC5); greater than 100 µM in series [6]; 0.8 ± 0.21 µM in the series on Prostate cells (PC-3) (read-out: Mean CC50 ± SD causing General cellular toxicity: ATP level, PC-3 cells, 5 days); 0.8 ± 0.21 µM in the series with Prostate cells (PC-3) (read-out: Mean CC50 ± SD in Prostate cells (PC-3), 5-day treatment); greater than 89 µM with HepG2 (galactose). Further, the CC50 is greater than 89 µM in the series with Huh7 and 0.21 ± 0.03 µM in series [7] (read-out: Mean CC50 ± SD causing Mitochondrial toxicity: Respiration, spare respiratory capacity, 3 days). In addition, the “fold greater sensitivity of PC-3 cells than HepG2 cells to reductions in COX-1 protein expression” value in series [3] (5-day treatment) was greater than 500 fold. The “selectivity of effect on COX-1 versus SDH-A and ATP levels” value in [3] (PC-3 cells, 5-day treatments) is given as “specifically inhibited COX-1 synthesis”. The “fold greater sensitivity of PC-3 cells than HepG2 cells to mitochondrial DNA depletion” value in [5] is listed as greater than 30 fold. Also, in series [7] (3-day treatments), the “selectivity of effect on spare respiratory capacity versus DNA and ATP levels” value was “specifically inhibited mitochondrial spare respiratory capacity”.

Take `O=c1[nH]cc(F)c(=O)[nH]1` [5-FU, 5-flurouracil]: the CC50 in [1] is 3.7 ± 0.5 µM; in series [2], 3.4 ± 0.8 µM; in the series with Quiescent PBMCs it was greater than 100 µM; with Stimulated PBMCs, greater than 100 µM; in [6] it was greater than 100 µM.
